From publication PMC8067754, “Active Transport of Hepatotoxic Pyrrolizidine Alkaloids in HepaRG Cells” (International Journal of Molecular Sciences, 2021)
Where “and” joins values, the source holds several entries; their conditions need not be identical. Identical values can stand only once.

Test system: HepaRG cells
Experiment: Time-dependent PA depletion and PANO formation in cell culture medium of HepaRG cells at 37 °C and 4 °C (LC-MS/MS)
Details: for PA content in cell culture medium, Mean [%]: 700 nM PA; for PA content in cell culture medium, Mean [%] / PANO content in cell culture medium, Mean [%]: percent of initial PA concentration; for reduction of PA content in the supernatant: after 24 h, 700 nM
Procedure: In order to measure time-dependent depletion of PA and PANO content in cell culture medium, cells were seeded at a density of 0.2 × 10^6 cells per well in a 6-well plate and cultivated as described in Section 4.2. After four weeks of cultivation, cells were adapted to serum-free medium and medium substituted with insulin, transferrin, selenium (ITS) serum extender (Capricorn Scientific, Ebsdorfergrund, Germany) 48 h prior to PA incubation for optimal LC-MS/MS measurements. […] Samples were taken after 2 h, 4 h, 8 h and 24 h.
Briefly, chromatographic separation of PA/PANO analytes was achieved on a 50 × 2.1 mm Kinetex ™ 2.6 μm CoreShell EVO C18 100 Å column protected by a SecurityGuard ™ ULTRA EVO C 18 2.1 mm guard column (both Phenomenex, Aschaffenburg, Germany) at a flow rate of 0.4 mL/min on a Shimadzu high performance liquid chromatography (HPLC) apparatus (LC-20AB, SIL-20AC HT, CTO-20AC, CBM-20A, Duisburg, Germany) coupled to an API4000 triple quadrupole MS (Sciex, Darmstadt, Germany). The following MS parameters were used for measurements in positive electrospray ionisation (ESI+) mode: ionisation voltage 2500 V, nebuliser gas 50 psi, heating gas 50 psi, curtain gas 30 psi, temperature 600 °C, collision gas level 7. The substance specific parameters are summarized in Kaltner et al. 2019 [79].

intermedine was tested, and the “PA content in cell culture medium, Mean [%]” value (shortened to “PA content … [%]”) (HepaRG, 4 °C (cold), 0h) was 107.988%, the “PA content … [%]” value (HepaRG, 4 °C (cold), 2h) was 103.883% and the “PA content … [%]” value (HepaRG, 4 °C (cold), 4h) was 102.163%. For the same compound, the “PA content … [%]” value (HepaRG, 4 °C (cold), 8h) was 103.746%, the “PA content … [%]” value (HepaRG, 4 °C (cold), 24h) was 100.748% and the “PA content … [%]” value (HepaRG, 37 °C (warm), 0h) was 108.544%. For the same compound, the “PA content … [%]” value (HepaRG, 37 °C (warm), 2h) was 103.044%, the “PA content … [%]” value (HepaRG, 37 °C (warm), 4h) was 97.3218% and the “PA content … [%]” value (HepaRG, 37 °C (warm), 8h) was 97.4673%. The “PA content … [%]” value (HepaRG, 37 °C (warm), 24h) was 100.568%, the “PANO content in cell culture medium, Mean [%]” value (“PANO content … [%]” below) (HepaRG, 700 nM parent PA, 4 °C (cold), 0h) was 0% and the “PANO content … [%]” value (HepaRG, 700 nM parent PA, 4 °C (cold), 2h) was 0.06406%. For the same compound, the “PANO content … [%]” value (HepaRG, 700 nM parent PA, 4 °C (cold), 4h) was 0.04788%, the “PANO content … [%]” value (HepaRG, 700 nM parent PA, 4 °C (cold), 8h) was 0.07456% and the “PANO content … [%]” value (HepaRG, 700 nM parent PA, 4 °C (cold), 24h) was 0.022%. The “PANO content … [%]” value (HepaRG, 700 nM parent PA, 37 °C (warm), 0h) was 0%, the “PANO content … [%]” value (HepaRG, 700 nM parent PA, 37 °C (warm), 2h) was 0.04194% and the “PANO content … [%]” value (HepaRG, 700 nM parent PA, 37 °C (warm), 4h) was 0.01862%. The “PANO content … [%]” value (HepaRG, 700 nM parent PA, 37 °C (warm), 8h) was 0.0065%, the “PANO content … [%]” value (HepaRG, 700 nM parent PA, 37 °C (warm), 24h) was 0.0275% and the “reduction of PA content in the supernatant” value (HepaRG, 37 °C) was “only little reduction”. The “PA in medium, Mean [%]” value (cold, 0h) was 100%, the “PA in medium, single replicates (repl.)” value (cold, 0h) was 100% and the “PANO in medium, Mean [%]” value (cold, 0h) was 0%. For the same compound, the “PANO in medium, single replicates (repl.)” value (“PANO in medium … (repl.)” below) (cold, 0h) was 0%, the “PA in medium, Mean [%]” value (cold, 2h) was 96.2366% and the “PA in medium, single replicates (repl.)” value (cold, 2h) was 96.0144% and 91.6565% and 102.06% and 95.215%. The “PANO in medium, Mean [%]” value (cold, 2h) was 0.05112%, the “PANO in medium … (repl.)” value (cold, 2h) was 0.03% and 0.05295% and 0.03688% and 0.08463% and the “PA in medium, Mean [%]” value (cold, 4h) was 94.7318%. For the same compound, the “PA in medium, single replicates (repl.)” value (cold, 4h) was 93.7752% and 93.3154% and 101.161% and 90.6753%, the “PANO in medium, Mean [%]” value (cold, 4h) was 0.03748% and the “PANO in medium … (repl.)” value (cold, 4h) was 0.02966% and 0.02637% and 0% and 0.09388%. The “PA in medium, Mean [%]” value (cold, 8h) was 96.1713%, the “PA in medium, single replicates (repl.)” value (cold, 8h) was 95.8013% and 89.4137% and 105.78% and 93.6906% and the “PANO in medium, Mean [%]” value (cold, 8h) was 0.05989%. The “PANO in medium … (repl.)” value (cold, 8h) was 0.03944% and 0.1014% and 0% and 0.09868%, the “PA in medium, Mean [%]” value (cold, 24h) was 93.3405% and the “PA in medium, single replicates (repl.)” value (cold, 24h) was 92.0698% and 90.9944% and 99.8071% and 90.4909%. The “PANO in medium, Mean [%]” value (cold, 24h) was 0.01524%, the “PANO in medium … (repl.)” value (cold, 24h) was 0.001348% and 0% (2×) and 0.05962% and the “PA in medium, Mean [%]” value (warm, 0h) was 100%. For the same compound, the “PA in medium, single replicates (repl.)” value (warm, 0h) was 100%, the “PANO in medium, Mean [%]” value (warm, 0h) was 0% and the “PANO in medium … (repl.)” value (warm, 0h) was 0%. The “PA in medium, Mean [%]” value (warm, 2h) was 94.9033%, the “PA in medium, single replicates (repl.)” value (warm, 2h) was 93.3617% and 94.7726% and 98.2992% and 93.1796% and the “PANO in medium, Mean [%]” value (warm, 2h) was 0.03999%. The “PANO in medium … (repl.)” value (warm, 2h) was 0.003057% and 0.04704% and 0.1099% and 0%, the “PA in medium, Mean [%]” value (warm, 4h) was 89.9787% and the “PA in medium, single replicates (repl.)” value (warm, 4h) was 93.5042% and 95.5972% and 80.8797% and 89.9336%. For the same compound, the “PANO in medium, Mean [%]” value (warm, 4h) was 0.01797%, the “PANO in medium … (repl.)” value (warm, 4h) was 0% (2×) and 0.07092% and 0.000941% and the “PA in medium, Mean [%]” value (warm, 8h) was 90.1345%. For the same compound, the “PA in medium, single replicates (repl.)” value (warm, 8h) was 94.7528% and 91.6017% and 83.3876% and 90.7959%, the “PANO in medium, Mean [%]” value (warm, 8h) was 0.006117% and the “PANO in medium … (repl.)” value (warm, 8h) was 0% (3×) and 0.02447%. For the same compound, the “PA in medium, Mean [%]” value (warm, 24h) was 92.1206%, the “PA in medium, single replicates (repl.)” value (warm, 24h) was 92.1111% and 85.5289% and 89.7263% and 101.116% and the “PANO in medium, Mean [%]” value (warm, 24h) was 0.02621%. For the same compound, the “PANO in medium … (repl.)” value (warm, 24h) was 0% (2×) and 0.05428% and 0.05058%.
With C/C=C1/C[C@@H](C)[C@@](C)(O)C(=O)OC/C2=C/CN(C)CC[C@@H](OC1=O)C2=O [Senkirkine, senkirkine] the “PA content … [%]” value (HepaRG, 4 °C (cold), 8h) was 116.261%, the “PA content … [%]” value (HepaRG, 4 °C (cold), 24h) was 100.349% and the “PA content … [%]” value (HepaRG, 37 °C (warm), 24h) was 51.3803%. The “PANO formation in cell culture medium” value (HepaRG, 37 °C, 700 nM parent PA, up to 24 h) was “did not form PANOs”, the “uptake and toxicity (grading)” value (HepaRG, Figure 2a, toxicity grading with ref 41) was “medium” and the “PA in medium, Mean [%]” value (cold, 0h) was 100%. The “PA in medium, single replicates (repl.)” value (cold, 0h) was 100%, the “PA in medium, single replicates (repl.)” value (cold, 2h) was 96.9078% and the “PA in medium, single replicates (repl.)” value (cold, 4h) was 94.744% and 91.9958%. The “PA in medium, Mean [%]” value (cold, 8h) was 99.7692%, the “PA in medium, single replicates (repl.)” value (cold, 8h) was 96.8217% and the “PA in medium, Mean [%]” value (cold, 24h) was 86.0777%. The “PA in medium, single replicates (repl.)” value (cold, 24h) was 79.1115%, the “PA in medium, Mean [%]” value (warm, 0h) was 100% and the “PA in medium, single replicates (repl.)” value (warm, 0h) was 100%. For the same compound, the “PA in medium, Mean [%]” value (warm, 2h) was 96.897%, the “PA in medium, single replicates (repl.)” value (warm, 2h) was 86.8159% and 96.0701% and the “PA in medium, Mean [%]” value (warm, 4h) was 92.4068%. For the same compound, the “PA in medium, single replicates (repl.)” value (warm, 4h) was 82.3204% and 92.3164%, the “PA in medium, Mean [%]” value (warm, 8h) was 78.7411% and the “PA in medium, single replicates (repl.)” value (warm, 8h) was 72.1889% and 78.0729% and 85.9614%. For the same compound, the “PA in medium, Mean [%]” value (warm, 24h) was 45.8528% and the “PA in medium, single replicates (repl.)” value (warm, 24h) was 40.9466% and 44.2184% and 52.3933%.
CC(C)[C@](O)(C(=O)OCC1=CCN2CC[C@@H](O)[C@@H]12)[C@@H](C)O [Lycopsamine, lycopsamine] was tested, and the “PA content … [%]” value (HepaRG, 4 °C (cold), 0h) was 115.66%, the “PA content … [%]” value (HepaRG, 4 °C (cold), 2h) was 114.666% and the “PA content … [%]” value (HepaRG, 37 °C (warm), 2h) was 110.255%. The “PA content … [%]” value (HepaRG, 37 °C (warm), 4h) was 110.221%, the “reduction of PA content in the supernatant” value (HepaRG, 37 °C) was “only little reduction” and the “PA in medium, Mean [%]” value (cold, 0h) was 100%. For the same compound, the “PA in medium, single replicates (repl.)” value (cold, 0h) was 100%, the “PA in medium, Mean [%]” value (cold, 2h) was 98.8899% and the “PA in medium, single replicates (repl.)” value (cold, 2h) was 94.3912% and 95.7309%. The “PA in medium, Mean [%]” value (cold, 4h) was 96.1322%, the “PA in medium, single replicates (repl.)” value (cold, 4h) was 91.7949% and 100.05% and the “PA in medium, Mean [%]” value (cold, 8h) was 96.74%. For the same compound, the “PA in medium, single replicates (repl.)” value (cold, 8h) was 94.6446% and 94.7892% and 95.0549%, the “PA in medium, single replicates (repl.)” value (cold, 24h) was 89.7134% and 94.6663% and 94.1752% and 95.3538% and the “PA in medium, Mean [%]” value (warm, 0h) was 100%. The “PA in medium, single replicates (repl.)” value (warm, 0h) was 100%, the “PA in medium, Mean [%]” value (warm, 2h) was 96.1576% and the “PA in medium, single replicates (repl.)” value (warm, 2h) was 89.3775%. The “PA in medium, Mean [%]” value (warm, 4h) was 95.7481%, the “PA in medium, single replicates (repl.)” value (warm, 4h) was 96.6594% and the “PA in medium, Mean [%]” value (warm, 8h) was 94.2429%. For the same compound, the “PA in medium, single replicates (repl.)” value (warm, 8h) was 86.6726% and 92.5981% and the “PA in medium, single replicates (repl.)” value (warm, 24h) was 92.6515%.
